{
  "source": "patent US20220280548A1",
  "about": "“COMBINATION THERAPY FOR SPINAL MUSCULAR ATROPHY” (Biogen MA Inc., priority 2019, published 2022)",
  "system": "neonatal (P0-P1) SMA mice having a human SMN2 transgene",
  "assay": "Body weight and righting reflex in neonatal SMA mice given nusinersen and/or AAV-SMN1 (Example 9)",
  "type": "in vivo",
  "details": "monotherapy, single dose",
  "protocol": "Nusinersen and AAV-SMN1 were administered to neonatal (P0-P1) SMA mice having a human SMN2 transgene. A low or high dose of nusinersen (1 μg and 3 μg respectively) was administered to the mice along with a low or high dose of AAV-SMN1 (1×10^10 GC or 3×10^10 GC respectively) at birth (P0-P1). The mice body weight and righting reflex were measured and compared to the body weight and righting reflex of control mice of the same genotype having received either nusinersen or AAV-SMN1 alone.\n[…]",
  "note": "“Also recorded” adds a separate entry of the source.",
  "data": [
    {"substance": "nusinersen (antisense UCACUUUCAUAAUGCUGG; 2'-O-MOE, phosphorothioate, chemistry not fully specified) [uniformly modified 2′-O-(2-methoxyethyl) phosphorothioate antisense oligonucleotide consisting of 18 nucleotide residues, targets intron 7 of SMN2 pre-mRNA]", "values": [
      {"measurement": "rescue of motor function (righting reflex)", "setting": "PND 16", "result": "full rescue"},
      {"measurement": "rescue of motor function (righting reflex)", "setting": "postnatal day (PND) 8", "result": "partially rescues; also recorded: partial rescue"},
      {"measurement": "body weight", "setting": "relative to WT control", "result": "lags behind the WT control"}
    ]}
  ]
}
